Key:
Nurr1 [1] = target: T1, Nurr1 (Homo sapiens, UniProt P43354); settings: high throughput screening of >340,000 compounds; cited from earlier work
Nurr1-LBD [2] = target: T2, Nurr1-LBD (Homo sapiens, UniProt P43354); experiment: 2D 1H-15N HSQC NMR chemical shift perturbation on Nurr1-LBD; type: binding; settings: 15N-labeled Nurr1-LBD, 1:10 molar ratio protein:ligand; residues in helix 11 and 12 perturbed
T2 construct: The human Nurr1-LBD construct coding for residues 328-598 (hNurr1-LBD) was cloned into pETSUMO expression vector; SUMO tag (pETSUMO vector, purified on Ni2+-NTA) (cleaved yes); made in house; host or cells: E. coli BL21 (DE3)
Experimental: 0.2 mM uniformly ^15-N labeled Nurr1-LBD protein was prepared in 20 mM sodium phosphate buffer containing 50 mM NaCl, 0.01% NaN3 (pH 7.5) in 90% H2O/10% D2O. The interaction between Nurr1-LBD and PGA1/PGA2 (in DMSO vehicle) was examined using two dimensional HSQC comparing free protein sample with 1:10 molar ratio of Nurr1-LBD:PGA1/PGA2. The backbone resonance and sequence specific resonance assignments were previously assigned for Nurr1-LBD as reported (Kim, et. al. Proc Nat Acad Sci 112, 8756-8761 (2015)). The binding sites of PGA1/PGA2 were mapped on the crystal structure of Nurr1-LBD (PDB code: 1OVL) after determining the chemical shift perturbations following the addition of PGA1/PGA2 against the spectrum of the free protein. Bruker Avance II 700 MHz spectrometer fitted with a 5 mm triple resonance, z-axis-gradient cryoprobe at 298K was used for all NMR experiments. All spectra were processed directly to SPARKY format in UNIX and analyzed using the SPARKY 3.114 program (Goddard and Kneller, SPARKY In, 3.114 Edition: Univ of Calif (2002)).
Prostaglandins are a family of biologically potent lipids from membrane phospholipids; comprised of a C20-unsaturated fatty acid containing a cyclopentenone ring. […]

Nurr1-LBD [3] = target: T2, Nurr1-LBD; experiment: Top-down mass spectrometry of covalent coupling to Nurr1-LBD; type: binding; settings: overnight incubation at 1:1.5 molar ratio
Experimental: Nurr1-LBD at ˜300 μM prepared in 0.1% FA in water was analyzed using a Dionex UltiMate 3000 UHPLC coupled to a linear quadrupole ion trap-Fourier transform Ultra apparatus (LTQ-FT Ultra, Thermo Scientific Inc.). Protein solution (5 μL) was injected directly into the detector carried by 0.1% FA in water at 500 μL/min. On-line ionization was performed using a Michrom CaptiveSpray ion source (Bruker-Michrom Inc., Auburn, USA) at an electrospray potential of 1.5 kV and capillary temperature of 200° C. Data acquisition was conducted in profile and positive mode (600-1600 m/z range). Mass spectrometry (MS) data was acquired for 60 min in the FT-ICR cell at a resolution of 100,000 (at 400 m/z) and maximum injection time of 500 msec using Xcalibur version 2.0 SR2 (Thermo Scientific Inc., Bremen, Germany). The automatic gain control target for FT-ICR was set to 5.0e+05. For each scan 100 microscans were averaged. […]
To exclude the possibility that the covalent coupling of PGA1/PGA2 to human Nurr1-LBD domain seen in the crystal structures was an artifact of crystallization or exposure to high-intensity X-rays, Nurr1-LBD at ˜ 300 μM prepared in 0.1% FA in water was analyzed using a Dionex UltiMate 3000 UHPLC coupled to a linear quadrupole ion trap-Fourier transform Ultra apparatus (LTQ-FT Ultra, Thermo Scientific Inc.). […]

LRRK2 G2019S Drosophila = experiment: Climbing assay and survival in LRRK2 G2019S Drosophila; type: in vivo, Drosophila melanogaster
Experimental: FIG. 4. Mitigation of locomotor deficits and mortality in LRRK2 G2019S Drosophila by CyPGs. Drosophila melanogaster expressing LRRK2 G2019S mutation driven by ddc-Gal4 result in late-onset PD in these flies. Treatment with 50 μM PGA2 was able to improve their climbing ability from 9.7% to 36.4% when compared to age-matched mutant flies (0.5% EtOH drug vehicle). Survival rate was determined by counting the number of flies that survived every 2-3 days for 55 days post-eclosion. Flies were treated with cornmeal-agar medium containing 50 μM PGA2 for 25 days at day 30 post-eclosion and climbing assay was carried out on day 55. The number of flies that climbed beyond a median line in a vertical column (length 25 cm; diameter 1.5 cm) were counted after one minute for an average of six times. Results represent mean±SEM of climbing scores from three independent experiments. Student's t-test (unpaired) was conducted to determine statistical significance between G2019S (vehicle treated) and PGA2-treated mutant flies: *p<0.05.
Flies expressing Leucine-rich repeat kinase 2 (LRRK2) with G2019S mutation driven by dopa decarboxylase (ddc)-Gal4 leads to late-onset PD in these flies (Liu, et al. Proc Natl Acad Sci USA 105, 2693-2698, doi:10.1073/pnas.0708452105 (2008)). […]

HL60 cells = settings: direct interaction with mitochondria; cited from earlier work
Nurr1 [4] = target: T1, Nurr1; settings: binding with Nurr1-LBD at its non-canonical ligand-binding site; cited from earlier work

T2 sequence (P43354 328-598): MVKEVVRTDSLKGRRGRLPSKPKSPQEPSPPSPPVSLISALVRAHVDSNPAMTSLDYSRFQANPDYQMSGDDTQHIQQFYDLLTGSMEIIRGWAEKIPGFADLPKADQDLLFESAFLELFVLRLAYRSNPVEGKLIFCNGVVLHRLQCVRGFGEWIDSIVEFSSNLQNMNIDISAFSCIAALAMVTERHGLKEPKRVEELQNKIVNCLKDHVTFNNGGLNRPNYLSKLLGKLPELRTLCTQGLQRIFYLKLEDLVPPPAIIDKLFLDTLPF
T1 sequence (P43354 whole entry, species assumed, the tested form may be a part): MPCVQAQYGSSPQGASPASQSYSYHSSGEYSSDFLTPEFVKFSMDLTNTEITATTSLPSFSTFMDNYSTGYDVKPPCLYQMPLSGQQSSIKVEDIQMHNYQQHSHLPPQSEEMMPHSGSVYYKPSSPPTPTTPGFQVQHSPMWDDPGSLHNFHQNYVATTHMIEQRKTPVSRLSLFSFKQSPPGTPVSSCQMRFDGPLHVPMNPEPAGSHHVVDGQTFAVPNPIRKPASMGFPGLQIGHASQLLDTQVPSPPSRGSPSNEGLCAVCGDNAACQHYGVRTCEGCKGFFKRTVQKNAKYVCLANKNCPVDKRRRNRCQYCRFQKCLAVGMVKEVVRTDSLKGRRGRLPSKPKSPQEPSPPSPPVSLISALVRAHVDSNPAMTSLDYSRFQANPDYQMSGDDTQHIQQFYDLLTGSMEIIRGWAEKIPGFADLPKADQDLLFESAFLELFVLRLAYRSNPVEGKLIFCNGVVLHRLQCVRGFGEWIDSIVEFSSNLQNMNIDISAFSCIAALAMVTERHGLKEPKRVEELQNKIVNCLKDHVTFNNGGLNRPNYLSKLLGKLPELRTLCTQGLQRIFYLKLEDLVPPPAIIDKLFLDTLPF

Compound | interaction with Nurr1-LBD by chemical shift perturbations (Nurr1-LBD [2]) | fraction of Nurr1 that binds the ligand covalently (Nurr1-LBD [3]) | transcriptional function of Nurr1 (Nurr1 [4]) | further results
Sc1ncnc2nc[nH]c12 [6-mercaptopurine] |  |  |  | activation of Nurr1 (Nurr1 [1]): activate Nurr1 through a region in the amino terminus lacking a LBD
CCCCCC(O)/C=C/[C@H]1C=CC(=O)[C@@H]1CCCCCCC(=O)O (stereo partly shown) [PGA1, prostaglandin A1] | direct physical interaction | about 50% |  | 
CCCCCC(O)/C=C/[C@H]1C=CC(=O)[C@@H]1C/C=C\CCCC(=O)O (stereo partly shown) [PGA2, prostaglandin A2] | direct physical interaction | about 50% |  | climbing ability (LRRK2 G2019S Drosophila; 50 μM in medium for 25 days from day 30 post-eclosion, assay on day 55, vehicle-treated mutant flies 9.7%): 36.4%; overall survival rate (LRRK2 G2019S Drosophila; PGA2 treated flies compared to vehicle treated mutant flies, 55 days post-eclosion): improvement to their overall survival rate; apoptosis in HL60 cells (HL60 cells): induce intrinsic apoptosis in HL60 cells
CCN(CC)Cc1cc(Nc2ccnc3cc(Cl)ccc23)ccc1O [amodiaquine] |  |  | enhance the transcriptional function of Nurr1 | 
CCN(CC)CCCC(C)Nc1ccnc2cc(Cl)ccc12 (stereo not shown) [chloroquine] |  |  | enhance the transcriptional function of Nurr1 | 
